According to PMC8199339, “Propellanes as Rigid Scaffolds for the Stereodefined Attachment of σ-Pharmacophoric Structural Elements to Achieve σ Affinity” (International Journal of Molecular Sciences, 2021):
Like-named read-outs stand apart in the source and are kept apart here.

What was measured:
σ1 receptor = molecular target: T1, σ1 receptor (Cavia porcellus, UniProt Q60492); experiment: σ1 receptor binding assay, radioligand [3H]-(+)-pentazocine, guinea pig brain membrane preparation; settings: for inhibition at 1 µM / inhibition of the radioligand binding, σ1: test compound concentration of 1 µM
T1 construct: thawed membrane preparation of guinea pig brain; tissue Harlan-Winkelmann, Borchen, Germany (animal organs); host or cells: guinea pig brain membrane homogenate

σ2 receptor = molecular target: T2, σ2 receptor (Rattus norvegicus, UniProt Q5U3Y7); experiment: σ2 receptor binding assay, radioligand [3H]di-o-tolylguanidine, rat liver membrane preparation; settings: for inhibition at 1 µM / inhibition of the radioligand binding, σ2: test compound concentration of 1 µM; for Ki: read-out: Ki (nM) σ2
T2 construct: The thawed rat liver membrane preparation; tissue Harlan-Winkelmann, Borchen, Germany (animal organs); host or cells: rat liver membrane homogenate
T2 sequence (Q5U3Y7 1-176): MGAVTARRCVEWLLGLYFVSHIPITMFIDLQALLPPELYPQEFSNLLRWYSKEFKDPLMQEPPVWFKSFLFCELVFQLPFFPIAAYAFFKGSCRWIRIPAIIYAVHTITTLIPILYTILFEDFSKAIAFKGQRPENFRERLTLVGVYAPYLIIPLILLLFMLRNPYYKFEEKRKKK

[1] = [3H]-(+)-pentazocine, guinea pig brain, mean of three experiments (± SEM), values without SEM mean of two, read-out: Ki (nM) σ1
[2] = approximate statement in text, read-out: σ1 affinity, Ki (in the range of)

T1 sequence (Q60492 whole entry): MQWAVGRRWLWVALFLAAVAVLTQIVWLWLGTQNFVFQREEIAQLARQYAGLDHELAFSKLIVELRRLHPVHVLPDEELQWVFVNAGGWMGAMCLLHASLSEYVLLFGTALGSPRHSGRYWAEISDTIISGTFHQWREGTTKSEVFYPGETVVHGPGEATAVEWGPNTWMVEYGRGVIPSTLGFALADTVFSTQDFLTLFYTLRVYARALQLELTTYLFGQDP

SMILES | inhibition at 1 µM (σ1 receptor) [%] | inhibition at 1 µM (σ2 receptor) [%] | Ki (σ1 receptor; [1]) [nM] | also measured
COc1ccc(C)cc1NC(=O)OC1CC23CCCCC2(CC(NCc2ccco2)C3)C1 (mixture of isomers) [8-anti-4i, [(8-anti-11-anti and 8-anti-11-syn)-11-[(Furan-2-yl-mehtyl)amino][4.3.3]propellan-8-yl] N-(2-methoxy-5-methylphenyl)carbamate] | – | – | 924 | Ki (σ1 receptor; [2]): ~1000 nM; Ki (σ2 receptor): > 6000 nM
COc1ccc(C)cc1NC(=O)OC1CC23CCCCC2(CC(NCc2ccc(C)cc2C)C3)C1 (stereo not drawn) [8-anti-4e, [(8-anti-11-anti and 8-anti-11-syn)-11-(2,4-Dimethylbenzylamino)[4.3.3]propellan-8-yl] N-(2-methoxy-5-methylphenyl)carbamate] | 0 | – | – | Ki (σ2 receptor): 1100 nM
COc1ccc(C)cc1NC(=O)OC1CC23CCCCC2(CC(NCC(C)C)C3)C1 (stereo not drawn) [8-anti-4u, [(8-anti-11-anti and 8-anti-11-syn)-11-(Isobutylamino)[4.3.3]propellan-8-yl] N-(2-methoxy-5-methylphenyl)carbamate] | 5 | – | – | Ki (σ2 receptor): 854 nM
COc1ccc(NC2CC34CCCCC3(C2)CC(OC(=O)Nc2cc(C)ccc2OC)C4)cc1Cl (stereo not drawn) [8-anti-4n, [(8-anti-11-anti and 8-anti-11-syn)-11-(3-Chloro-4-methoxyphenylamino)-[4.3.3]propellan-8-yl] N-(2-methoxy-5-methylphenyl)carbamate] | 0 | 0 | – | –
COc1ccc(NC2CC34CCCCC3(C2)CC(OC(=O)Nc2cc(C)ccc2OC)C4)cc1 (stereo not drawn) [8-anti-4m, [(8-anti-11-anti and 8-anti-11-syn)-11-(4-Methoxyphenylamino)[4.3.3]propellan-8-yl] N-(2-methoxy-5-methylphenyl)carbamate] | 11 | 0 | – | –
COc1ccc(C)cc1NC(=O)OC1CC23CCCCC2(CC(NCc2cc(C(F)(F)F)cc(C(F)(F)F)c2)C3)C1 (stereo not drawn) [8-anti-4f, [(8-anti-11-anti and 8-anti-11-syn)-11-[(3,5-Bis(trifluoromethyl)benzylamino]-[4.3.3]propellan-8-yl] N-(2-methoxy-5-methylphenyl)carbamate] | 0 | 0 | – | –
COc1ccc(C)cc1NC(=O)OC1CC23CCCCC2(CC(NCc2ccco2)C3)C1 (mixture of isomers) [8-syn-4i, [(8-syn-11-syn and 8-syn-11-anti)-11-[(Furan-2-yl-mehtyl)amino][4.3.3]propellan-8-yl] N-(2-methoxy-5-methylphenyl)carbamate] | – | 0 | 276 | –
COc1ccc(C)cc1NC(=O)N(Cc1ccccc1)C1CC23CCCCC2(CC(O)C3)C1 (stereo not drawn) [anti,anti-22, 1 -Benzyl-1-{(8-anti,11-anti)-11-hydroxy[4.3.3]propellan-8-yl}-3-(2-methoxy-5-methylphenyl)urea] | – | – | – | inhibition of the radioligand binding, σ1 (σ1 receptor): 0%; inhibition of the radioligand binding, σ2 (σ2 receptor; 1 µM): 0%
COc1ccc(C)cc1NC(=O)OC1CC23CCCCC2(CC(NCCc2c[nH]c4ccccc24)C3)C1 (stereo not drawn) [8-anti-4k, [(8-anti-11-anti and 8-anti-11-syn)-11-[2-(Indol-3-yl)ethylamino][4.3.3]propellan-8-yl] N-(2-methoxy-5-methylphenyl)carbamate] | – | 0 | 1200 | Ki (σ1 receptor; [2]): ~1000 nM
COc1ccc(C)cc1NC(=O)OC1CC23CCCCC2(CC(Nc2ccccc2)C3)C1 (stereo not drawn) [8-anti-4l, [(8-anti-11-anti and 8-anti-11-syn)-11-(Phenylamino)[4.3.3]propellan-8-yl] N-(2-methoxy-5-methylphenyl)carbamate] | 13 | 0 | – | –
COc1ccc(C)cc1NC(=O)OC1CC23CCCCC2(CC(NCc2ccc(OC)c(OC)c2)C3)C1 (stereo not drawn) [8-anti-4b, [(8-anti-11-anti and 8-anti-11-syn)-11-(3,4-Dimethoxbenzylamino)[4.3.3]propellan-8-yl] N-(2-methoxy-5-methylphenyl)carbamate] | 6 | 1 | – | –
COc1ccc(C)cc1NC(=O)OC1CC23CCCCC2(CC(NCCO)C3)C1 (stereo not drawn) [8-anti-4s, [(8-anti-11-anti and 8-anti-11-syn)-11-(2-Hydroxyethyl-1-amino)[4.3.3]propellan-8-yl] N-(2-methoxy-5-methylphenyl)carbamate] | 12 | 0 | – | –
O=C1CC23CCCCC2(C1)CC(NC(=O)Nc1ccc(F)c(F)c1)C3 (stereo not drawn) [anti-25, 1-(3,4-Difluorophenyl)-3-(8-anti-11-oxo[4.3.3]propellan-8-yl)urea] | – | – | – | inhibition of the radioligand binding, σ1 (σ1 receptor; 1 µM): 0%; inhibition of the radioligand binding, σ2 (σ2 receptor): 0%
COc1ccc(C)cc1NC(=O)N(Cc1ccccc1)C1CC23CCCCC2(CC(O)C3)C1 (stereo not drawn) [syn,anti-22, 1 -Benzyl-1-{(8-syn,11-anti)-11-hydroxy[4.3.3]propellan-8-yl}-3-(2-methoxy-5-methylphenyl)urea] | – | – | – | inhibition of the radioligand binding, σ1 (σ1 receptor): 0%; inhibition of the radioligand binding, σ2 (σ2 receptor; 1 µM): 8%
COc1ccc(C)cc1NC(=O)OC1CC23CCCCC2(CC(NCc2ccc(Cl)c(Cl)c2)C3)C1 (stereo not drawn) [8-anti-4d, [(8-anti-11-anti and 8-anti-11-syn)-11-(3,4-Dichlorobenzylamino)[4.3.3]propellan-8-yl] N-(2-methoxy-5-methylphenyl)carbamate] | 0 | 4 | – | –
COc1ccc(C)cc1NC(=O)OC1CC23CCCCC2(CC(Nc2ccc(N)cc2)C3)C1 (stereo not drawn) [8-anti-4o, [(8-anti-11-anti and 8-anti-11-syn)-11-(4-Aminophenylamino)[4.3.3]propellan-8-yl] N-(2-methoxy-5-methylphenyl)carbamate] | 16 | – | – | Ki (σ2 receptor): 12000 nM
COc1ccc(C)cc1NC(=O)OC1CC23CCCCC2(CC(NCCCCCO)C3)C1 (stereo not drawn) [8-anti-4t, [(8-anti-11-anti and 8-anti-11-syn)-11-(5-Hydroxypentylamino)[4.3.3]propellan-8-yl] N-(2-methoxy-5-methylphenyl)carbamate] | – | 2 | 454 | –
COc1ccc(C)cc1NC(=O)OC1CC23CCCCC2(CC(NCc2ccc(Cl)cc2)C3)C1 (stereo not drawn) [8-anti-4c, [(8-anti-11-anti and 8-anti-11-syn)-11-(4-Chlorobenzylamino)[4.3.3]propellan-8-yl] N-(2-methoxy-5-methylphenyl)carbamate] | 6 | 12 | – | –
COc1ccc(C)cc1NC(=O)OC1CC23CCCCC2(CC(NCCCc2ccccc2)C3)C1 (stereo not drawn) [8-anti-4q, [(8-anti-11-anti and 8-anti-11-syn)-11-(3-Phenylpropylamino)[4.3.3]propellan-8-yl] N-(2-methoxy-5-methylphenyl)carbamate] | 22 | 0 | – | –
COc1ccc(C)cc1NC(=O)OC1CC23CCCCC2(CC(NCCc2c[nH]c4ccccc24)C3)C1 (stereo not drawn) [8-syn-4k, [(8-syn-11-syn and 8-syn-11-anti)-11-[(2-(Indol-3-yl)ethylamino][4.3.3]propellan-8-yl] N-(2-methoxy-5-methylphenyl)carbamate] | – | – | 983 | Ki (σ2 receptor): 1400 nM
COc1ccc(C)cc1NC(=O)OC1CC23CCCCC2(CC(NCCc2ccccc2)C3)C1 (stereo not drawn) [8-anti-4p, [(8-anti-11-anti and 8-anti-11-syn)-11-(Phenethylamino)[4.3.3]propellan-8-yl] N-(2-methoxy-5-methylphenyl)carbamate] | – | 0 | 668 | –
COc1ccc(C)cc1NC(=O)OC1CC23CCCCC2(CC(NCc2ccc([N+](=O)[O-])cc2)C3)C1 (stereo not drawn) [8-anti-4g, [(8-anti-11-anti and 8-anti-11-syn)-11-(4-Nitrobenzylamino)[4.3.3]propellan-8-yl] N-(2-methoxy-5-methylphenyl)carbamate] | 24 | – | – | Ki (σ2 receptor): 1950 nM

Now from value to compound, other results behind:

inhibition at 1 µM (σ1 receptor) [%] | inhibition at 1 µM (σ2 receptor) [%] | Ki (σ1 receptor; [1]) [nM] | SMILES | also measured
0 | 0 | – | O=C(Nc1ccc(F)c(F)c1)NC1CC23CCCCC2(CC(O)C3)C1 (stereo not drawn) [anti,anti-26, 1-(3,4-Difluorophenyl)-3-(8-anti-11-anti-11-hydroxy[4.3.3]propellan-8-yl)urea] | –
– | – | 1400 | c1ccc(CNC2CC34CCCCC3(C2)CC2(C4)OCCO2)cc1 (stereo not drawn) [anti-14, (11′-anti)-Spiro-([1,3]dioxolane-2,8′-(N-benzyl[4.3.3]propellan))-11′-amine] | inhibition of the radioligand binding, σ2 (σ2 receptor; 1 µM): 0%
5 | 13 | – | NC1CC23CCCCC2(CCC3)C1 (stereo not shown) [compound 16] | –
– | 0 | – | O=C1CC23CCCCC2(C1)CC(NC(=O)Nc1ccc(F)c(F)c1)C3 (stereo not drawn) [syn-25, 1-(3,4-. Difluorophenyl)-3-(8-syn-11-oxo[4.3.3]propellan-8-yl)urea] | inhibition of the radioligand binding, σ1 (σ1 receptor; 1 µM): 10%
0 | – | – | COc1ccc(C)cc1NC(=O)N(Cc1ccccc1)C1CC23CCCCC2(CC(O)C3)C1 (stereo not drawn) [anti,syn-22, 1-benzyl-1-{(8-anti,11-syn)-11-hydroxy[4.3.3]propellan-8-yl}-3-(2-methoxy-5-methylphenyl)urea] | inhibition of the radioligand binding, σ2 (σ2 receptor; 1 µM): 17%
– | 27 | 619 | OC1CC23CCCCC2(C1)CC(NCc1ccccc1)C3 (mixture of isomers) [11-syn-13, [(8-syn-11-syn and 8-syn-11-anti)-11-(Benzylamino)[4.3.3]propellan-8-ol] | –
– | – | 750 | c1ccc(CNC2CC34CCCCC3(C2)CC2(C4)OCCO2)cc1 (stereo not drawn) [syn-14] | inhibition of the radioligand binding, σ2 (σ2 receptor; listed as syn- 14, 1 µM): 7%
– | 39 | 594 | c1ccc(CNC2CC34CCCCC3(CCC4)C2)cc1 (stereo not shown) [compound 8] | reduction of σ1 affinity compared to azapropellane 9a (σ1 receptor; compared to 9a): 35 fold; selectivity for the σ1 receptor over the σ2 receptor (σ1 receptor; σ1 over σ2): at least 10 fold
